Source: ChEMBL document CHEMBL3872210, “Synthesis and antiproliferative mechanism of action of pyrrolo[3',2':6,7] cyclohepta[1,2-d]pyrimidin-2-amines as singlet oxygen photosensitizers” (Eur J Med Chem, 2016)
The source made the active and inactive calls. The rule behind the calls is not given here.

Columns and labels:
MCF7 [1] = test: Induction of lysosomal dysfunction in human MCF7 cells at 400 nM irradiated with 1.5 J/cm2 UV-light measured after 6 hrs by Lysotracker green DND staining based confocal microscopic method; type: functional, cell-based
[2] = Photocytotoxicity against human MCF7 cells assessed as increase in production of radical oxygen species at 400 nM pretreated for 30 mins followed by 1.5 J/cm2 UV-light irradiation for 5 mins measured after 6 hrs by H2DCFDA dye based fluorescence assay relative to control; type: functional
[3] = Photocytotoxicity against human MCF7 cells assessed as increase in production of radical oxygen species at 400 nM pretreated for 30 mins followed by 1.5 J/cm2 UV-light irradiation for 5 mins measured after 2 hrs by H2DCFDA dye based fluorescence assay relative to control; type: functional
MCF7 [4] = test: Induction of mitochondrial fusion in human MCF7 cells at 400 nM irradiated with 1.5 J/cm2 UV-light measured after 6 hrs by Mitotracker orange CMTM-ROS/Nuclear green staining based confocal microscopic method; type: functional, cell-based

What does the source list for `CCCCCCCCCCCCCC(=O)O[C@@H]1[C@@H](C)[C@@]2(O)[C@@H](C=C(CO)C[C@]3(O)C(=O)C(C)=C[C@@H]23)[C@@H]2C(C)(C)[C@]12OC(C)=O` [PHORBOL MYRISTATE ACETATE]?
Activity (MCF7 [1]): Active; Activity [2]: 420%; Activity [3]: 120%; Activity (MCF7 [4]): Active
